Results as given in patent publication US20240279202A1 (NURIX THERAPEUTICS, INC., priority 2021, published 2024).

Target: T1, ITK (Homo sapiens, UniProt Q08881)
T1 sequence (Q08881 1-620): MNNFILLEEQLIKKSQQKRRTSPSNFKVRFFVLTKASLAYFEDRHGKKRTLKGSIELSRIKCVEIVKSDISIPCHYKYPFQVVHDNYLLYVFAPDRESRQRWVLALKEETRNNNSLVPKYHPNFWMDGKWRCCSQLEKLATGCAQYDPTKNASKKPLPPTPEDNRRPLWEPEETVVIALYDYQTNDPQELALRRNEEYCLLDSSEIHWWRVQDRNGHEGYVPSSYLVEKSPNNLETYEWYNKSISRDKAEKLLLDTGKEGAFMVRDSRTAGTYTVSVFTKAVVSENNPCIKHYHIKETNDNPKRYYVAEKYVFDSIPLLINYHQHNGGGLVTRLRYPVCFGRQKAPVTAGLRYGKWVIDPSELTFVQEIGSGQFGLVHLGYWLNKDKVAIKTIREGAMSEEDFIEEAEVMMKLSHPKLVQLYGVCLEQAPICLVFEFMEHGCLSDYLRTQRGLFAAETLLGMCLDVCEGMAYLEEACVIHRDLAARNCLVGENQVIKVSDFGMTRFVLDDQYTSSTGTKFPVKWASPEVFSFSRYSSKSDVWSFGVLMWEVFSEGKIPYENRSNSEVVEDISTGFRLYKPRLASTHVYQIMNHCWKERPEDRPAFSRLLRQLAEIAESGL
Test: ITK degradation HiBiT assay
Type: cell-based
Design: expressed in transfected cells; host or cells: Molt4 (ATCC CRL-1552), monoclonal clone 1C10, engineered to carry the HiBiT tag
Settings: 4 hrs; for Dmax: MOLT-4, C-terminal HiBiT-tagged Molt4 cells
Summary of the method: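 C-terminal HiBiT-tagged Molt4 cells (clone 1C10) treated 4 h at 32° C with an 11-point, 5-fold compound dilution series (0.5% DMSO). HiBiT lytic detection with LgBiT then luminescence read; % ITK remaining versus concentration fit by four-parameter variable-slope model to give DC50 and Dmax.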

[1] = C-terminal HiBiT-tagged Molt4 cells

DC50 [1] [nM] | Dmax [%] | HiBiT DMax (%) [1] [%] | SMILES
1.7 | 86 |  | C[C@@]12Cc3[nH]nc(C(=O)Nc4cnn([C@H]5CCN(C[C@@H]6CCN(c7ccc(C8CCC(=O)NC8=O)cc7)C6)C[C@@H]5F)c4)c3C[C@@H]1C2(F)F (stereo partly drawn) [Compound 100, (4aS,5aR)-N-(1-((3S,4S)-1-(((3S)-1-(4-(2,6-dioxopiperidin-3-yl)phenyl)pyrrolidin-3-yl)methyl)-3-fluoropiperidin-4-yl)-1H-pyrazol-4-yl)-5,5-difluoro-5a-methyl-1,4,4a,5,5a,6-hexahydrocyclopropa[f]indazole-3-carboxamide]
1.1 | 87 |  | C[C@@]12Cc3[nH]nc(C(=O)Nc4cnn([C@@H]5CCN(C[C@@H]6CCN(c7ccc(C8CCC(=O)NC8=O)cc7)C6)C[C@H]5F)c4)c3C[C@@H]1C2(F)F (stereo partly drawn) [Compound 101, (4aS,5aR)-N-(1-((3R,4R)-1-(((3S)-1-(4-(2,6-dioxopiperidin-3-yl)phenyl)pyrrolidin-3-yl)methyl)-3-fluoropiperidin-4-yl)-1H-pyrazol-4-yl)-5,5-difluoro-5a-methyl-1,4,4a,5,5a,6-hexahydrocyclopropa[f]indazole-3-carboxamide]
1.8 | 88 |  | C[C@@]12Cc3[nH]nc(C(=O)Nc4ccc(C5CCN(CC6CCN(c7ccc(C8CCC(=O)NC8=O)cc7)CC6)CC5)cc4)c3C[C@@H]1C2(F)F (stereo partly drawn) [Compound 108, (4aS,5aR)-N-(4-(1-((1-(4-(2,6-dioxopiperidin-3-yl)phenyl)piperidin-4-yl)methyl)piperidin-4-yl)phenyl)-5,5-difluoro-5a-methyl-1,4,4a,5,5a,6-hexahydrocyclopropa[f]indazole-3-carboxamide]
1.7 | 88 |  | C[C@@]12Cc3[nH]nc(C(=O)Nc4ccc(C5CCN(CC6CCN(c7ccc(C8CCC(=O)NC8=O)cc7)CC6)CC5)nc4)c3C[C@@H]1C2(F)F (stereo partly drawn) [Compound 110, (4aS,5aR)-N-(6-(1-((1-(4-(2,6-dioxopiperidin-3-yl)phenyl)piperidin-4-yl)methyl)piperidin-4-yl)pyridin-3-yl)-5,5-difluoro-5a-methyl-1,4,4a,5,5a,6-hexahydrocyclopropa[f]indazole-3-carboxamide]
0.4 | 80 |  | C[C@@]12Cc3[nH]nc(C(=O)Nc4cnn(C5CCN(CC6CCN(c7ccc(N8CCC(=O)NC8=O)cn7)CC6)CC5)c4)c3C[C@@H]1C2(F)F [Compound 113, (4aS,5aR)-N-{1-[1-({1-[5-(2,4-dioxo-1,3-diazinan-1-yl)pyridin-2-yl]piperidin-4-yl}methyl)piperidin-4-yl]-1H-pyrazol-4-yl}-5,5-difluoro-5a-methyl-1H,4H,4aH,5H,5aH,6H-cyclopropa[f]indazole-3-carboxamide]
0.9 |  | 89 | C[C@@]12Cc3[nH]nc(C(=O)Nc4cnn(C5CCN(CC6CCN(c7ccc([C@@H]8CCC(=O)NC8=O)cc7)CC6)CC5)c4)c3C[C@@H]1C2(F)F [Compound 116, (4aS,5aR)-N-(1-{1-[(1-{4-[(3S)-2,6-dioxopiperidin-3-yl]phenyl}piperidin-4-yl)methyl]piperidin-4-yl}-1H-pyrazol-4-yl)-5,5-difluoro-5a-methyl-1H,4H,4aH,5H,5aH,6H-cyclopropa[f]indazole-3-carboxamide]
0.467 | 77 |  | C[C@@]12Cc3[nH]nc(C(=O)Nc4cnn(C5CCN(CC6CCN(c7ccc([C@H]8CCC(=O)NC8=O)cc7F)CC6)CC5)c4)c3C[C@@H]1C2(F)F [Compound 118, (4aS,5aR)-N-(1-{1-[(1-{4-[(3R)-2,6-dioxopiperidin-3-yl]-2-fluorophenyl}piperidin-4-yl)methyl]piperidin-4-yl}-1H-pyrazol-4-yl)-5,5-difluoro-5a-methyl-1H,4H,4aH,5H,5aH,6H-cyclopropa[f]indazole-3-carboxamide]
2.03 | 76 |  | CC1(C)CCc2c(C(=O)Nc3cnn(C4CCN(CC5CCN(c6ccc([C@@H]7CCC(=O)NC7=O)cc6)CC5)CC4)c3)n[nH]c2C1 [Compound 121, N-(1-{1-[(1-{4-[(3S)-2,6-dioxopiperidin-3-yl]phenyl}piperidin-4-yl)methyl]piperidin-4-yl}-1H-pyrazol-4-yl)-6,6-dimethyl-4,5,6,7-tetrahydro-1H-indazole-3-carboxamide]

More lines, now with the values behind:

SMILES | DC50 [1] [nM] | Dmax [%] | HiBiT DMax (%) [1] [%]
C[C@@]12Cc3[nH]nc(C(=O)Nc4ccc(C5CCN(CC6CCN(c7ccc(C8CCC(=O)NC8=O)cn7)CC6)CC5)cc4)c3C[C@@H]1C2(F)F (stereo partly drawn) [Compound 109, (4aS,5aR)-N-(4-(1-((1-(5-(2,6-dioxopiperidin-3-yl)pyridin-2-yl)piperidin-4-yl)methyl)piperidin-4-yl)phenyl)-5,5-difluoro-5a-methyl-1,4,4a,5,5a,6-hexahydrocyclopropa[f]indazole-3-carboxamide] | 0.73 | 91 | 
C[C@@]12Cc3[nH]nc(C(=O)Nc4ccc(C5CCN(CC6CCN(c7ccc(C8CCC(=O)NC8=O)cn7)CC6)CC5)nc4)c3C[C@@H]1C2(F)F (stereo partly drawn) [Compound 111, (4aS,5aR)-N-(6-(1-((1-(5-(2,6-dioxopiperidin-3-yl)pyridin-2-yl)piperidin-4-yl)methyl)piperidin-4-yl)pyridin-3-yl)-5,5-difluoro-5a-methyl-1,4,4a,5,5a,6-hexahydrocyclopropa[f]indazole-3-carboxamide] | 1.2 | 90 | 
C[C@@]12Cc3[nH]nc(C(=O)Nc4cnn(C5CCC(CN6CCC(Oc7ccc(C8CCC(=O)NC8=O)cn7)CC6)CC5)c4)c3C[C@@H]1C2(F)F (stereo partly drawn) [Compound 124, (4aS,5aR)-5,5-difluoro-5a-methyl-N-{1-[(1rs,4rs)-4-{[4-({5-[(3R)-2,6-dioxopiperidin-3-yl]pyridin-2-yl}oxy)piperidin-1-yl]methyl}cyclohexyl]-1H-pyrazol-4-yl}-1H,4H,4aH,5H,5aH,6H-cyclopropa[f]indazole-3-carboxamide] | 3.7 | 90 | 
C[C@@H]1CN(C(=O)c2ccc3cc(-c4n[nH]c5c4CCC(C)(C)C5)[nH]c3c2)CCN1CC1CCN(c2ccc(C3CCC(=O)NC3=O)cn2)CC1 (stereo partly drawn) [Compound 129, 3-(6-(4-(((R)-4-(2-(6,6-dimethyl-4,5,6,7-tetrahydro-1H-indazol-3-yl)-1H-indole-6-carbonyl)-2-methylpiperazin-1-yl)methyl)piperidin-1-yl)pyridin-3-yl)piperidine-2,6-dione] | 4.9 | 81 | 
C[C@H]1CN(CC2CCN(c3ccc(C4CCC(=O)NC4=O)cn3)CC2)CCN1C(=O)c1ccc2cc(-c3n[nH]c4c3CCC(C)(C)C4)[nH]c2c1 (stereo partly drawn) [Compound 130, 3-(6-(4-(((S)-4-(2-(6,6-dimethyl-4,5,6,7-tetrahydro-1H-indazol-3-yl)-1H-indole-6-carbonyl)-3-methylpiperazin-1-yl)methyl)piperidin-1-yl)pyridin-3-yl)piperidine-2,6-dione] | 5.5 | 85 | 
C[C@H]1CN(C(=O)c2ccc3cc(-c4n[nH]c5c4CCC(C)(C)C5)[nH]c3c2)CCN1CC1CCN(c2ccc(C3CCC(=O)NC3=O)cn2)CC1 (stereo partly drawn) [Compound 131, 3-(6-(4-(((S)-4-(2-(6,6-dimethyl-4,5,6,7-tetrahydro-1H-indazol-3-yl)-1H-indole-6-carbonyl)-2-methylpiperazin-1-yl)methyl)piperidin-1-yl)pyridin-3-yl)piperidine-2,6-dione] | 0.5 | 84 | 
